Laboratory results as given in patent US11903908B2, “Methods of administering amantadine” (Adamas Pharma, LLC, priority 2013, dated 2024).
Counter-ions that a name gives are not always drawn. Like-named read-outs stand apart in the source and are kept apart here.

How the values were obtained:
[1] = test system: PD patients with levodopa-induced dyskinesia (LID); conditions: cited from earlier work
[2] = test system: subjects with Parkinson's Disease (PD) who have levodopa-induced dyskinesia (LID); test: Randomized, double-blind, placebo-controlled study of Amantadine ER capsules for levodopa-induced dyskinesia in Parkinson's Disease (Example 5)
From the text: Study Objectives: This study was designed to evaluate the efficacy of three dose levels of Amantadine Extended Release (ER) oral capsules dosed once nightly at nighttime for the treatment of levodopa-induced dyskinesia (LID) in subjects with Parkinson's Disease (PD). […] Study design: This was a multi-center, randomized, double-blind, placebo-controlled, 4-arm parallel group study of Amantadine ER in subjects with PD who have LID.
Subjects who were randomized to Treatment C received, in double-blind fashion, 260 mg Amantadine ER once nightly during week 1, with an increase to 340 mg once nightly at the beginning of week 2. Subjects who were randomized to Treatment D, in double-blind fashion, 260 mg Amantadine ER once nightly during week 1, with an increase to 340 mg Amantadine ER once nightly during week 2, with a further increase to 420 mg once nightly at the beginning of week 3. Dosing for all groups continued at the nominal dose through week 8.
Following completion of the baseline visit and randomization, subjects returned to the clinic after 1, 2, 4, 6, and 8 weeks of dosing, with a follow-up visit 14 days following the last dose of study drug. Study visits and assessments were scheduled during the hours between 10 am through 4 pm. A set of two 24-hour diaries were be completed during 48 hours prior to randomization and 48 hours prior to selected study visits. The diary was used to score five different conditions in 30-minute intervals: Sleep, OFF, ON without dyskinesias, ON with nontroublesome dyskinesias, ON with troublesome dyskinesias.
Blood samples were collected at selected study visits for determination of amantadine plasma concentrations, and evaluation of steady-state population pharmacokinetics. Subject participation during the study was up to 12 weeks including a 2-week (maximum) screening period, 8-week (maximum) treatment period, and a 2-week follow-up period. Subjects unable to tolerate their assigned study drug assignment permanently discontinued study drug and continued to be followed for safety through 2 weeks following the last dose of study drug. […]

[3] = amantadine IR 200 mg/day, PD patients

NC12CC3CC(CC(C3)C1)C2 [amantadine, Amantadine HCl]
reduction in LID [1, 3]: approximately 25% | tolerability [1, 3]: generally tolerated by the majority of PD patients | CNS side effects ([1]; amantadine IR 300 mg/day or higher): associated with central nervous system (CNS) side effects | reduction of LID ([1]; amantadine IR 300 mg/day, PD patients): ~40% | reduction of LID ([1]; amantadine IR 300 to 400 mg/day, one study): ~60% | effect on motor fluctuations (ON/OFF) ([1]; later stages of PD): no effect | discontinuation rates ([2]; 420 mg once nightly): higher discontinuation rates | frequency of side effects ([2]; 420 mg once nightly): comparable frequency of side effects | tolerability ([2]; 260-420 mg once nightly, Parkinson's disease patients): well tolerated
